Patent US20220354782A1, “SUBCUTANEOUSLY INJECTABLE INSULIN AND GLUCAGON FORMULATIONS AND METHODS OF ADMINISTRATION” (CASS PHARMACEUTICALS, INC., priority 2019, published 2022)
Where two headings read alike, the source gives them in different places.

Legend:
[1] = Solubility of insulin, FDKP and insulin plus FDKP between pH 6.0 and pH 7.4 (Example 9); assay type: physicochemical
Method: A standard solution of insulin (using recombinant human insulin) was made in 0.05N aqueous HCl. An aliquot (1 mg) of the solution was transferred into 4 different Eppendorf tubes and 9 mg of solid Na2-FDKP was added into each tube. A milky suspension formed immediately. The pH was adjusted to the values between pH 6.0 and pH 7.4 using 0.1N aqueous NaOH. Samples of insulin alone were compared to FDKP alone and to the solution of insulin and FDKP. The insulin alone samples were all insoluble. […] All samples containing 9 mg/ml FDKP and 1 mg/ml insulin were soluble at all pH values.

[2] = test system: diabetic minipigs; assay: Glucose response after subcutaneous injection in diabetic minipigs (Example 8); assay type: in vivo, Yucatan minipigs
Method: Recombinant human insulin were prepared in ultra-fast acting subcutaneous injectable formulations in aqueous solutions containing FDKP at pH 6.5 and 7.4, as summarized in Table 6. All formulation preparation was conducted in a laminar flow hood and the final solutions were filtered through 0.2 micron filters. Both formulations were injected into the subcutaneous tissue of diabetic minipigs (Yucatan minipigs rendered diabetic by treatment with alloxan).
The glucose response from the pH 6.5 formulation compared to a subcutaneous injection of standard lispro insulin is shown in FIG. 1. […] Time to 50% glucose reduction from the formulation is 30 minutes, while that from standard lispro is 50 minutes.
The glucose response from the […] formulation compared to a subcutaneous injection of the ultra-fast acting pH 6.5 formulation, both containing FDKP, are shown in FIG. 2. […] The strong pH dependency of the absorption rate was not anticipated. While not wanting to be held to a specific mechanism for the rapid absorption, the lower pH solution appears to cause there to be less charge on the FDKP, which would make it more hydrophobic, and therefore more likely to bind tightly to the insulin molecule, thereby reducing the overall charge on insulin, causing there to be more monomers in solution, and enhancing the absorption by several mechanisms.

[3] = FDKP micelle formation; assay type: physicochemical; details: FIG. 3
Method: FIG. 3 is a graph depicting the concentration of FDKP for forming micelles in phosphate buffer at pH 7.4 above 0.03 mg/ml.
Without being restricted to any one mechanism for creating the ultra-fast insulin formulations, a diketopiperazine, for example FDKP, has effects as an absorption enhancer and permeation enhancer, a metal chelator, a surfactant, a bolaamphiphile, and an aggregation inhibitor, and promotes enhanced absorption through a combination of these effects, including enhancing the amount of monomer insulin in solution upon injection. For example, the fumaric acid charges on the FDKP may serve to charge-mask insulin positive charges, reducing the overall charge on the insulin, and making it more likely to be absorbed, especially when formulations have a pH of about 6.0 to about 7.2, as described herein.

concentration for forming micelles [3] [µM] | solubility ([1]; below pH 7.0) | solubility ([1]; pH 6.0) | solubility ([1]; pH 7.0, listed as FDKP (9 mg/mL)) | solubility ([1]; pH 7.0, listed as FDKP alone) | solubility ([1]; pH 7.4, listed as FDKP (9 mg/mL)) | solubility ([1]; pH 7.4, listed as FDKP alone) | Compound | solubility [1] | solubility ([1]; pH 6) | solubility ([1]; pH 6.5) | solubility ([1]; pH 7) | solubility ([1]; pH 7.4) | Time to 50% glucose reduction [2] [min]
– | – | – | – | – | – | – | Insulin (1 mg/mL): Recombinant human insulin, 1 mg/mL, without FDKP [reference compound] | insoluble | insoluble | Insoluble | Insoluble | Insoluble | –
– | – | – | – | – | – | – | insulin lispro [standard lispro] | – | – | – | – | – | 50
≥ 62 | insoluble | Insoluble | Partial | partially soluble | Soluble | soluble | O=C(O)/C=C/C(=O)NCCCCC1NC(=O)C(CCCCNC(=O)/C=C/C(=O)O)NC1=O (centres unmarked) [FDKP, 2,5-diketo-3,6-di(4-fumarylaminobutyl)piperazine] | – | – | Insoluble | – | – | –
